# Tests used:
# A375 melanoma xenograft = assay: In vivo inhibition of tumor growth, tumor growth delay method; settings: for MDS to 2.0 g ± SEM (n): A375; for animals survived at day 57: group of six mice; for survival increase: vs control groups
# Description: The in vivo effect of a compound on the growth of human tumor cells can be evaluated by implanting human tumor cells originating from a variety of different tumor types (such as A375 human melanoma cells) into the hindflank of athymic mice and administering a test compound to the mice.
# Female nude mice were implanted subcutaneously with 1 mm^3 A375 melanoma fragments in the flank. Tumors were monitored twice weekly and then daily as the neoplasms reached the desired size range (about 75 mg). […] Estimated tumor weight was calculated using the formula (where w=width and l=length in mm of an A375 melanoma tumor): […]
# All treatments were initiated on Day 1 and the study was terminated on Day 57.
# The tumor growth delay (TGD) method was used in this study. In the TGD method, each animal was euthanized when its A375 neoplasm reached a size of 2.0 g. Mean Day of Survival (MDS) values were calculated for all groups. The treatment-effected mean “increase in survival” of various groups were compared to each other and to the mean survival times of mice receiving vehicle. The MDS values calculated for each group, based on the calculated day of death of each mouse, is given by the formula:
# Time to exceed endpoint (observed)=number of days it takes for each tumor to grow past the endpoint (cut-off) size. Once the tumor reaches the cut-off size, the animal is euthanized. • D2=day animal is euthanized. • D1=last day of caliper measurement before tumor reaches the endpoint. • Wt2=tumor weight (mg) on D2 • Wt1=tumor weight (mg) on D1 • Endpoint weight=predetermined “cut-off” tumor size for the model being used.
# Animals were weighed twice weekly during the study. Mice were examined frequently for clinical signs of any adverse, drug-related side effects. Acceptable toxicity for cancer drugs in mice is defined by the NCI as no mean group weight loss of over 20% during the test, and not more than one toxic death among ten treated animals.
# [1] = target: T1, Casein Kinase 1 (CK1 delta isoform) (Rattus norvegicus, UniProt Q06486); assay: Kinase selectivity assay Casein Kinase 1; assay type: biochemical
# T1 construct: a truncation at amino acid 318 of the C-terminal portion of the rat CK1 delta isoform; purchased New England Biolabs 6030; host or cells: E. coli
# T1 sequence (Q06486 1-317): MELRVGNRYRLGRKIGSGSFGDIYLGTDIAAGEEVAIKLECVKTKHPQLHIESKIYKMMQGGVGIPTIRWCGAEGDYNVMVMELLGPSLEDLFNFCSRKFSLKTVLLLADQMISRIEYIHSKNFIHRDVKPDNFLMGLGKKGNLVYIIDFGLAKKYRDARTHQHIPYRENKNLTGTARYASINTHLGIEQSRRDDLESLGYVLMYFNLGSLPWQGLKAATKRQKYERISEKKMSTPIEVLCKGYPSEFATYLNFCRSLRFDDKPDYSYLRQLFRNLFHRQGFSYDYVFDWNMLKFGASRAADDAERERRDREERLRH
# Description: (§1) Assays to test compound inhibition of other kinases were preformed using methods that measure the amount of phosphorylation of a biotinylated peptide substrate. Biotinylated peptide substrates were selected from the literature as appropriate for the enzyme being evaluated. […] Assay conditions vary slightly for each protein kinase, for example, insulin receptor kinase requires 10 mM MnCl2 for activity and Calmodulin-dependent protein kinase requires calmodulin and 2 mM CaCl2. The reaction mixture was dispensed into the wells of a streptavidin coated Flashplate and 1 μL test compound in 100% DMSO was added to a 100 μL reaction volume resulting in a final concentration of 1% DMSO in the reaction. Enzyme was diluted in 50 mM Tris-HCl pH=8.0, 0.1% BSA and added to each well. The reaction was incubated for one hour at 30° C. in the presence of a test compound. After one hour the reaction mix was aspirated from the plate and the plate was washed with PBS containing 100 mM EDTA. The plate was read on a scintillation counter to determine ^33P-γ-ATP incorporated into the immobilized peptide substrate. Test compounds were assayed in duplicate at 8 concentrations (100 μM, 10 μM, 1 μM, 100 nM, 10 nM, 1 nM, 100 pM, 10 pM). A maximum and minimum signal for the assay was determined on each plate. […] Known inhibitor compounds appropriate for the kinase being assayed were also included on each plate. […]
# [2] = target: T2, PDGF-R (beta subunit kinase domain) (Homo sapiens, UniProt P09619); assay: Kinase selectivity assay PDGF-R; assay type: biochemical
# T2 construct: nucleotides 1874–3507 of the human PDGF-R beta subunit kinase domain; polyhistidine (N)
# T2 sequence (P09619 554-1106 limits assumed): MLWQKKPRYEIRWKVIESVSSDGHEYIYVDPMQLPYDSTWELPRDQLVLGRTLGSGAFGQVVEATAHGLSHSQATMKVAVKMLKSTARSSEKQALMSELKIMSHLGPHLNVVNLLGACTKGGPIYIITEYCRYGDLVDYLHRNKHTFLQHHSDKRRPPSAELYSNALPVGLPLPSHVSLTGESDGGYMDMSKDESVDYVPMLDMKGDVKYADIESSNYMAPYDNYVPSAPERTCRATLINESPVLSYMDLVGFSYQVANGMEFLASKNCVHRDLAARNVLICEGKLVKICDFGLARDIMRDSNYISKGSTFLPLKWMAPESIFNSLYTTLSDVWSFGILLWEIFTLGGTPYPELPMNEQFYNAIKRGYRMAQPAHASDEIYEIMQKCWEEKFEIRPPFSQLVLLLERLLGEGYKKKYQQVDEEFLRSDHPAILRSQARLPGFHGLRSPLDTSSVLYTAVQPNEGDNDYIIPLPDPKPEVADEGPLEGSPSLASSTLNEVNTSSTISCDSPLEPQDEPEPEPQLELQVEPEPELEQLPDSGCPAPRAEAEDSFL
# Description: as §1
compound,measurement,setting,value
"OCCCNc1cc(-c2ncnc(Nc3cccc(Cl)c3)n2)ccn1 [Compound 2, 3-((4-(4-((3-chlorophenyl)amino)-1,3,5-triazin-2-yl)-2-pyridinyl)amino)-1-propanol]",surviving longer than the PEG vehicle control and Growth Control groups,A375 melanoma xenograft; 100 mg/kg,about 8 days
same,Max % BW loss (day),A375 melanoma xenograft; 100 mg/kg i.p. qd×32,−17.2% (33)
same,MDS to 2.0 g ± SEM (n),"A375 melanoma xenograft; 100 mg/kg i.p. qd×32, female nude mice",29.6 days
same,MDS to 2.0 g ± SEM (n),"A375 melanoma xenograft; 100 mg/kg i.p. qd×32, female nude mice, listed as Cpd 2",29.6 ± 3.1 (6) days
same,animals survived at day 57,A375 melanoma xenograft; 100 mg/kg,None
same,survival increase,A375 melanoma xenograft; 100 mg/kg,about 37%
same,surviving longer than the PEG vehicle control and Growth Control groups,A375 melanoma xenograft; 125 mg/kg,about 14 days
same,Max % BW loss (day),A375 melanoma xenograft; 125 mg/kg i.p. qd×32,−18.8% (29)
same,MDS to 2.0 g ± SEM (n),"A375 melanoma xenograft; 125 mg/kg i.p. qd×32, female nude mice",35.2 days
same,MDS to 2.0 g ± SEM (n),"A375 melanoma xenograft; 125 mg/kg i.p. qd×32, female nude mice, listed as Cpd 2",35.2 ± 3.6 (5) days
same,animals survived at day 57,A375 melanoma xenograft; 125 mg/kg,One out of six
same,survival increase,A375 melanoma xenograft; 125 mg/kg,about 63%
same,surviving longer than the PEG vehicle control and Growth Control groups,A375 melanoma xenograft; 150 mg/kg,about 12 days
same,Max % BW loss (day),A375 melanoma xenograft; 150 mg/kg i.p. qd×32,−17.6% (33)
same,MDS to 2.0 g ± SEM (n),"A375 melanoma xenograft; 150 mg/kg i.p. qd×32, female nude mice",33.6 days
same,MDS to 2.0 g ± SEM (n),"A375 melanoma xenograft; 150 mg/kg i.p. qd×32, female nude mice, listed as Cpd 2",33.6 ± 3.0 (4) days
same,animals survived at day 57,A375 melanoma xenograft; 150 mg/kg,One out of six
same,survival increase,A375 melanoma xenograft; 150 mg/kg,about 55%
same,NCI definition for acceptable toxicity of a cancer drug in mice,"A375 melanoma xenograft; 150 and 125 mg/kg dose groups, no mean group weight loss over 20%, not more than one toxic death among ten",satisfied the NCI definition for acceptable toxicity
same,efficacy against the A375 melanoma xenograft,A375 melanoma xenograft; high doses of 150 and 125 mg/kg compared,approximately equivalent efficacy
"OCCCNc1cncc(-c2ncnc(Nc3cccc(Cl)c3)n2)c1 [Compound 1, 3-((5-(4-((3-chlorophenyl)amino)-1,3,5-triazin-2-yl)-3-pyridinyl)amino)-1-propanol]",IC50,[1],115 nM
same,IC50,[2],1180 nM
